Reference: PMC6690746 (European journal of medicinal chemistry, 2018)
Entries after “also recorded” stand apart in the source; their conditions may differ.

Legend:
Type in all cases: cell-based, human
[1] = tested on: NCI-60 cancer cell line panel; assay: NCI 60 cell screen; details: for Loss in cell number: NCI-60, the 4 cell lines killed
T98G cells = assay: Antitumor activity; details: for Maximal killing activity: concentration not stated at this place; for EC50: Homo sapiens, read-out: Antitumor activity EC50; for Fold increase in EC50 value compared with 8: versus compound 8 (87 nM)
HepG2 (liver) = assay: Cell-killing activity; details: HepG2, at 1–10 μM
PD-GBM cells = assay: Cell-killing activity in PD-GBM cells, all subtypes together; details: applied at 1–10 μM
[2] = NCI-60, the 11 cell lines with halted proliferation
[3] = NCI-60, the 41 cell lines with reduced proliferation rate

Compound: CCn1c2ccccc2c2cc(C(=O)c3cccc4ncccc34)ccc21 [Compound 20, 9-ethyl-3-(quinoline-5-carbonyl)-9H-carbazole]
- Loss in cell number [1]: 13% to 60%
- Percent growth inhibition [1, 2]: 9% to −1%
- Percent growth inhibition [1, 3]: 67% to 10%

Compound: CC[C@]1(O)C[C@@H]2CN(CCc3c([nH]c4ccccc34)[C@@](C(=O)OC)(c3cc4c(cc3OC)N(C)[C@H]3[C@@](O)(C(=O)OC)[C@H](OC(C)=O)[C@]5(CC)C=CCN6CC[C@]43[C@@H]65)C2)C1 [vinblastine, reference compound]
- Maximal killing activity (T98G cells; 72 h): 36.0% ± 2.3

Compound: CCn1c2ccccc2c2cc(C(=S)c3ccc(C)c4ccccc34)ccc21 [Compound 26, 9-ethyl-3-(4-methylnaphthalene-1-carbothioyl)-9H-carbazole]
- Effect on T98G cells in words (T98G cells; 72 h): only weakly active at concentrations above five micromolar or essentially inactive; also recorded: did not significantly affect T98G cell viability

Compound: COC(=O)Nc1nc2cc(C(=O)c3cccs3)ccc2[nH]1 [Compound 3, nocodazole, reference compound]
- Maximal killing (% ± SEM) (T98G cells; 72 h, at 10 μM): 45.6% ± 1.7
- EC50 (T98G cells; 72 h): 29 nM

Compound: CCn1c2ccccc2c2cc(C(=O)N3CCN(C)CC3)ccc21 [Compound 9, 9-ethyl-3-(4-methylpiperazine-1-carbonyl)-9H-carbazole]
- Effect on T98G cells in words (T98G cells; 72 h): only weakly active at concentrations above five micromolar or essentially inactive; also recorded: did not significantly affect T98G cell viability

Compound: CCn1c2ccccc2c2cc(C(=O)c3cccc4c3CCCN4)ccc21 [Compound 23]
- Effect on T98G cells in words (T98G cells; 72 h): only weakly active at concentrations above five micromolar or essentially inactive; also recorded: did not significantly affect T98G cell viability
- Effect on NCI-60 cell lines in words ([1]; NCI-60 panel): did not significantly affect the viability and proliferation of any of the cell lines
- Growth inhibition: Delta ([1]; NCI-60 panel): 10.42
- Growth inhibition: Mean ([1]; NCI-60 panel, over all cell lines): 102.05

Compound: CCn1c2ccccc2c2cc(C(=O)N3CCCc4ccccc43)ccc21 [Compound 25, 9-ethyl-3-[(1,2,3,4-tetrahydroquinolin-1-yl)carbonyl]-9H-carbazole]
- Activity in HepG2 cells in words (HepG2 (liver)): inactive
- PD-GBM cells killed (PD-GBM cells): 95–100%

Compound: CCCn1c2ccccc2c2cc(C(=O)c3ccc(C)c4ccccc34)ccc21 [Compound 16, 9-propyl-3-[(4-methylnaphthalen-1-yl)carbonyl]-9H-carbazole]
- Effect on T98G cells in words (T98G cells; 72 h): only weakly active at concentrations above five micromolar or essentially inactive; also recorded: did not significantly affect T98G cell viability
- Fold increase in EC50 value compared with 8 (T98G cells): 115 fold

Compound: CCn1c2ccccc2c2cc(C(=O)c3cccc4c3NCCC4)ccc21 [Compound 24, 9-ethyl-3-(1,2,3,4-tetrahydroquinoline-8-carbonyl)-9H-carbazole]
- Effect on T98G cells in words (T98G cells; 72 h): only weakly active at concentrations above five micromolar or essentially inactive; also recorded: did not significantly affect T98G cell viability

Compound: CCn1c2ccccc2c2cc(C(=O)c3cccc4ccccc34)ccc21 [Compound 14, 9-ethyl-3-(naphthalene-1-carbonyl)-9H-carbazole]
- Fold increase in EC50 value compared with 8 (T98G cells): 20 fold

Compound: COc1ccc(/C=C\c2cc(OC)c(OC)c(OC)c2)cc1O [Compound 1, combretastatin A-4, reference compound]
- Maximal killing (T98G cells; 72 h, at 10 nM): 30.4% ± 2.1
- EC50 (T98G cells; 72 h): 0.6 nM

Compound: CCn1c2ccccc2c2cc(C(O)c3ccc(C)c4ccccc34)ccc21 (stereo not drawn) [Compound 27, (9-ethyl-9H-carbazol-3-yl)(4-methylnaphthalen-1-yl)methanol]
- Fold increase in EC50 value compared with 8 (T98G cells): 6 fold
- Loss in cell number [1]: 13% to 60%
- Percent growth inhibition [1, 2]: 9% to −1%
- Percent growth inhibition [1, 3]: 67% to 10%

Compound: Cc1ccc(C(=O)c2ccc3c(c2)c2ccccc2n3CC(F)(F)F)c2ccccc12 [Compound 18, 3-(4-methylnaphthalene-1-carbonyl)-9-(2,2,2-trifluoroethyl)-9H-carbazole]
- Effect on T98G cells in words (T98G cells; 72 h): only weakly active at concentrations above five micromolar or essentially inactive
- Maximal killing activity (T98G cells; 72 h): 35–45%
- Fold increase in EC50 value compared with 8 (T98G cells): 64 fold

Compound: CCn1c2ccccc2c2cc(C(=O)c3ccc(C)c4ccccc34)ccc21 [Compound 8, 9-ethyl-3-[(4-methylnaphthalen-1-yl)carbonyl]-9H-carbazole]
- Maximal killing activity (T98G cells; 72 h): 35–45%
- Loss in cell number [1]: 13% to 60%
- Percent growth inhibition [1, 2]: 9% to −1%
- Percent growth inhibition [1, 3]: 67% to 10%

Compound: CCn1c2ccccc2c2cc(C(=O)Cc3ccccc3)ccc21 [Compound 13, 1-(9-ethyl-9H-carbazol-3-yl)-2-phenylethan-1-one]
- Effect on T98G cells in words (T98G cells; 72 h): only weakly active at concentrations above five micromolar or essentially inactive; also recorded: did not significantly affect T98G cell viability

Compound: CCn1c2c(c3ccccc31)CN(C(=O)c1ccc(C)c3ccccc13)CC2 [Compound 35, 5-ethyl-2-[(4-methylnaphthalen-1-yl)carbonyl]-1H,2H,3H,4H,5H-pyrido[4,3-b]indole]
- Maximal killing activity (T98G cells; 72 h): 35–45%
